Common to all, as to format: cell-based
Assay [1] deals with Serrtia liquefaciens SL/326 A. The assay can be described thus: MIC on beta-lactamase producing strain Serratia liquefaciens SL/326 A (Table IV). How it is done:
(§1) To evaluate the stability of these products towards beta-lactamases, their MIC was determined on isogenic strains producing and not producing beta-lactamases.
(§2) The results are expressed in μg/ml in Table IV.

The test system of assay [2] is Klebsiella RO 30. The assay can be described thus: MIC, in vitro dilution method, Klebsiella RO 30 (Table III). Conditions: RO30. The gist of the method: (§3)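 Dilution-method MIC, in vitro, μg/ml.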
The test system of assay [3] is Citrobacter RL 49. Kind of assay: MIC, in vitro dilution method, Citrobacter RL 49 (Table III). To be noted: RL49. The essentials:
as §3

Assay [4] deals with Serratia RL 72. The assay can be described thus: MIC, in vitro dilution method, Serratia RL 72 (Table III). To be noted: RL72. The essentials: as §3
Assay [5] concerns Escherichia coli 255/L.7. Kind of assay: MIC on strain not producing beta-lactamase, Escherichia coli 255/L.7 (Table IV). To be noted: Escherichia coli 255/L.7 *, not producing beta-lactamases; read-out: MIC. How it is done: as §1, §2
Assay [6] relates to Pseudomonas RL 112. The assay can be described thus: MIC, in vitro dilution method, Pseudomonas RL 112 (Table III). To be noted: RL112. The essentials:
as §3

The subject of assay [7] is Escherichia coli 255. Kind of assay: MIC on beta-lactamase producing strain Escherichia coli 255 (Table IV). How it is done: as §1, §2
For assay [8], the system named is Proteus vulgaris GN 76/C.1/3. Kind of assay: MIC on strain not producing beta-lactamase, Proteus vulgaris GN 76/C.1/3 (Table IV). Conditions: GN76, not producing beta-lactamases. The protocol:
as §1, §2

The test system of assay [9] is Proteus vulgaris GN 76/C.1. The assay can be described thus: MIC on beta-lactamase producing strain Proteus vulgaris GN 76/C.1 (Table IV). Conditions: GN76. The protocol: as §1, §2
Assay [10] relates to Escherichia coli SOL 90. The assay can be described thus: MIC, in vitro dilution method, Escherichia coli SOL 90 (Table III). Conditions: SOL90. The essentials: as §3
Assay [11] relates to Serrtia liquefaciens SL 1326 S. The assay can be described thus: MIC on strain not producing beta-lactamase, Serratia liquefaciens SL 1326 S (Table IV). Conditions: SL1326S, not producing beta-lactamases. How it is done: as §1, §2
For assay [12], the system named is Enterobacter RO 154. Kind of assay: MIC, in vitro dilution method, Enterobacter RO 154 (Table III). To be noted: RO154. The gist of the method:
as §3

In assay [13] the test system is Proteus vulgaris RL 99 bis. The assay can be described thus: MIC, in vitro dilution method, Proteus vulgaris RL 99 bis (Table III). To be noted: Proteus vulgaris, RL99BIS. The essentials:
as §3

Where [14] appears, read: Escherichia coli 255, producing beta-lactamases, read-out: MIC.
Where [15] appears, read: Klebsiella RO 30, dilution method, read-out: MIC.
Setting [16] is: Escherichia coli SOL 90, dilution method, read-out: MIC.
The mark [17] stands for this setting: Enterobacter RO 154, dilution method, read-out: MIC.

Values after ≈ are worked out from the molar mass of the structure shown. Where two headings read alike, the source gives them in different places.

As to `CC(C)(O/N=C(\C(=O)NC1C(=O)N2C(C(=O)O)=C(COC(=O)c3cccc(CN)c3)C[S+]([O-])C12)c1csc(N)n1)C(=O)O` (stereo not shown) [42 320], the MIC in [1] is 0.125 µg/mL (≈ 0.197 µM); in assay [2] (Klebsiella), ≤ 0.125 µg/mL; in assay [3] (Citrobacter) it was ≤ 0.125 µg/mL; in assay [4], 0.5 µg/mL (≈ 0.788 µM); in assay [5] it was 0.0625 µg/mL (≈ 0.0985 µM); in [6], 4 µg/mL (≈ 6.3 µM). Also, the MIC in assay [7] (setting [14]) is 0.0625 µg/mL (≈ 0.0985 µM); in assay [8] it was 0.125 µg/mL (≈ 0.197 µM); in assay [9] (Proteus vulgaris), ≤ 0.0312 µg/mL; in assay [10] (Escherichia coli) it was ≤ 0.125 µg/mL; in [11], ≤ 0.0312 µg/mL; in assay [12] (Enterobacter), ≤ 0.125 µg/mL. The minimal inhibitory concentration (MIC) in assay [13] is ≤ 0.125 µg/mL.
In the case of `CC(C)(ON=C(C(=O)NC1C(=O)N2C(C(=O)O)=C(CSC(=O)c3ccc(NC(=O)CN)cc3)C[S+]([O-])C12)c1csc(N)n1)C(=O)O` (stereo not shown) [compound 42664], the MIC in assay [1] was 0.25 µg/mL (≈ 0.36 µM); in assay [2] (setting [15]) it was 0.5 µg/mL (≈ 0.721 µM); in assay [4] it was 4 µg/mL (≈ 5.77 µM); in assay [5], 0.0625 µg/mL (≈ 0.0901 µM); in assay [6], 8 µg/mL (≈ 11.5 µM); in [7] (setting [14]), 0.25 µg/mL (≈ 0.36 µM). The minimum inhibitory concentration (MIC) in [8] was found to be 0.25 µg/mL (≈ 0.36 µM); in assay [9] (Proteus vulgaris GN 76/C.1, producing beta-lactamases, read-out: MIC) it was 0.125 µg/mL (≈ 0.18 µM); in [10] (setting [16]), 1 µg/mL (≈ 1.44 µM); in assay [11], 0.0625 µg/mL (≈ 0.0901 µM); in assay [12] (setting [17]), 4 µg/mL (≈ 5.77 µM).
On to `NCC(=O)Nc1ccc(C(=O)OCC2=C(C(=O)O)N3C(=O)C(NC(=O)C(=NOC4(C(=O)O)CCC4)c4csc(N)n4)C3[S+]([O-])C2)cc1` (stereo not shown) [42 548], for which the MIC in assay [1] was 0.125 µg/mL (≈ 0.181 µM); in assay [2] (Klebsiella) it was 0.125 µg/mL (≈ 0.181 µM); in [3] (Citrobacter), ≤ 0.125 µg/mL; in [4], 0.5 µg/mL (≈ 0.725 µM); in assay [5], ≤ 0.0312 µg/mL; in assay [6], 2 µg/mL (≈ 2.9 µM). In addition, the MIC is 0.625 µg/mL (≈ 0.906 µM) in [7] (Escherichia coli, 255); 0.0625 µg/mL (≈ 0.0906 µM) in [8]; 0.0625 µg/mL (≈ 0.0906 µM) in assay [9] (Proteus vulgaris); 0.25 µg/mL (≈ 0.362 µM) in assay [10] (setting [16]); ≤ 0.0312 µg/mL in assay [11]; 0.25 µg/mL (≈ 0.362 µM) in assay [12] (setting [17]). Moreover, the minimal inhibitory concentration (MIC) in assay [13] was ≤ 0.125 µg/mL.
Consider `CC(C)(O/N=C(\C(=O)NC1C(=O)N2C(C(=O)O)=C(COC(=O)c3ccc(NC(=O)CN)cc3)C[S+]([O-])C12)c1csc(N)n1)C(=O)O` (stereo not shown) [42 467], for which the minimum inhibitory concentration (MIC) is 0.125 µg/mL (≈ 0.184 µM) in assay [1]; 0.25 µg/mL (≈ 0.369 µM) in [2] (setting [15]); ≤ 0.125 µg/mL in assay [3] (Citrobacter); 2 µg/mL (≈ 2.95 µM) in [4]; ≤ 0.0312 µg/mL in [5]; 4 µg/mL (≈ 5.9 µM) in assay [6]. For the same compound, the minimal inhibitory concentration (MIC) in [7] (setting [14]) was 0.0625 µg/mL (≈ 0.0922 µM); in [8] it was 0.0625 µg/mL (≈ 0.0922 µM); in assay [9] (Proteus vulgaris) it was ≤ 0.0312 µg/mL; in assay [10] (setting [16]), 0.25 µg/mL (≈ 0.369 µM); in assay [11], 0.125 µg/mL (≈ 0.184 µM); in assay [12] (setting [17]), 0.5 µg/mL (≈ 0.738 µM). Moreover, in [13], the minimal inhibitory concentration (MIC) is ≤ 0.125 µg/mL.
As to `CC(C)(O/N=C(\C(=O)NC1C(=O)N2C(C(=O)O)=C(COC(=O)CC3CCNCC3)C[S+]([O-])C12)c1csc(N)n1)C(=O)O` (stereo not shown) [42 474], the minimal inhibitory concentration (MIC) in assay [1] was 0.125 µg/mL (≈ 0.199 µM); in assay [2] (setting [15]) it was 0.25 µg/mL (≈ 0.399 µM); in assay [3] (Citrobacter) it was ≤ 0.125 µg/mL; in assay [4], 0.25 µg/mL (≈ 0.399 µM); in assay [5], 0.0625 µg/mL (≈ 0.0997 µM); in assay [6], 4 µg/mL (≈ 6.38 µM). The MIC in assay [7] (setting [14]) was 0.0625 µg/mL (≈ 0.0997 µM); in assay [8] it was 0.0625 µg/mL (≈ 0.0997 µM); in [9] (Proteus vulgaris), 0.0625 µg/mL (≈ 0.0997 µM); in assay [10] (setting [16]), 0.25 µg/mL (≈ 0.399 µM); in [11], ≤ 0.0312 µg/mL; in assay [12] (Enterobacter), ≤ 0.125 µg/mL. Further, the minimum inhibitory concentration (MIC) in [13] is ≤ 0.125 µg/mL.
Take `CC(C)(O/N=C(\C(=O)NC1C(=O)N2C(C(=O)O)=C(COC(=O)c3csc(NC(=O)CN)n3)C[S+]([O-])C12)c1csc(N)n1)C(=O)O` (stereo not shown) [42 466]: the MIC in assay [1] came to 1 µg/mL (≈ 1.46 µM); in assay [2] (setting [15]), 0.5 µg/mL (≈ 0.73 µM); in [3] (Citrobacter RL 49, dilution method, read-out: MIC) it was 0.25 µg/mL (≈ 0.365 µM); in assay [4], 2 µg/mL (≈ 2.92 µM); in assay [5], 0.125 µg/mL (≈ 0.183 µM); in assay [6] it was 4 µg/mL (≈ 5.84 µM). Besides, the MIC in assay [7] (setting [14]) is 0.125 µg/mL (≈ 0.183 µM); in assay [8] it was 0.0625 µg/mL (≈ 0.0913 µM); in assay [9] (Proteus vulgaris), ≤ 0.0312 µg/mL; in assay [10] (setting [16]), 0.5 µg/mL (≈ 0.73 µM); in assay [11], ≤ 0.0312 µg/mL; in [12] (setting [17]), 0.5 µg/mL (≈ 0.73 µM). For the same compound, the minimum inhibitory concentration (MIC) in [13] is ≤ 0.125 µg/mL.

One may read the MIC as the lowest concentration that inhibits growth of the organism.

(Values after patent US4656166A, “Antibiotic compounds derived from cephalosporins, process for their production and pharmaceutical compositions” (Sanofi, priority 1983, dated 1987).)
